Key:
[1] = Measured solubilities of ECA and PECA in solvents and of solvents in PECA; settings: ±10%; for Solubility (wt %) ECA in: solubility of ECA in the listed solvent; for Solubility (wt %) PECA in: solubility of PECA in the listed solvent; for Solubility (wt %) in PECA: solubility of the listed solvent in PECA
[2] = from Ref. [17]; cited from earlier work
[3] = at 20° C.; from Refs [18], [19]; cited from earlier work

Compound	Solubility (wt %) ECA in [1]	Solubility (wt %) PECA in [1]	Solubility (wt %) in PECA [1]	ET^N normalized empirical parameter of solvent polarity [2]	σ surface tension [3]
COCCOC [1,2-dimethoxyethane]	miscible	miscible	miscible	–	–
CCCCCC [n-hexane]	–	–	–	0.009	18.4 mN/m
CCCCC [n-pentane]	11.4 wt %	0.11 wt %	0.8 wt %	0.009	16.1 mN/m
CCCCCCC [n-heptane]	7.5 wt %	0.05 wt %	0.4 wt %	0.012	20.1 mN/m
CC(C)=O [acetone]	miscible	miscible	miscible	0.355	24.1 mN/m
CCOC(C)=O [ethyl acetate]	–	–	–	0.228	24.1 mN/m
CCOCC [diethyl ether]	miscible	0.10 wt %	–	0.117	17.1 mN/m
Cc1ccccc1 [toluene]	–	–	–	0.099	–
C1CCCCC1 [cyclohexane]	–	–	–	0.006	25.2 mN/m
xylene	miscible	0.24 wt %	–	0.074	29.3 mN/m

— US10703843B2, “Compositions and methods for bonding glues, adhesives, and coatings to surfaces” (University of Virginia Patent Foundation, priority 2014, dated 2020)
